We go through three compounds from publication PMC10897374, “Synthetic angiotensin II peptide derivatives confer protection against cerebral and severe non-cerebral malaria in murine models” (Scientific Reports, 2024).

Where a SMILES comes first, the peptide text is derived from it. Bridges are numbered along the chain shown (N, C = ends). Where no end group is shown, it is not given here.

Series [1] concerns mouse muscle tissue. As to conditions: cited from earlier work.
Series [2] deals with Plasmodium berghei ANKA. The experiment in a line: Severe non-cerebral malaria model: parasitemia and survival. Format: in vivo. The note with it: BALB/c mice. The method, then:
(§1) A cryopreserved sample of erythrocytes infected with P. berghei ANKA (kindly provided by Dr. Leonardo J. Carvalho, La Jolla University, San Diego, CA) was thawed and 1 × 10^6 erythrocytes infected with P. berghei ANKA were injected intraperitoneally (i.p.) in the C57BL/6 mice. Parasitemia was monitored from the prepatent period until parasitemia was sufficient for infection of the experimental animal groups (7 male mice per group), i.e., 5–8% parasitemia per mL of blood (injection of 200 µL in each mouse).
The same protocol was performed with 6- to 8-week-old BALB/c mice also provided from FIOCRUZ (8 male mice per group). […] After 3 days, parasitemia was evaluated by blood smear from a droplet of blood collected from the lateral tail vein of each animal and colored with the hematological Diff-Quick® kit. The survival of the animals was also monitored daily. […]
C57BL/6 (cerebral malaria model) and BALB/c (non-cerebral malaria model) mice received a single daily dose (100 ng Kg^−1 min^−1) of Ang II (brown line), Ang II-SS (orange line), VIPF (blue line), or vehicle (PBS, black line) for 5 days. […] Parasitemia was monitored by Diff-Quick stained blood smears from day 3 to day 7 for C57BL/6 mice (A) and from day 3 to day 9 for BALB/c mice (B). Percentage of survival for C57BL/6 mice (C) and BALB/c mice (D) mice was monitored daily starting on day 6 p.i. […]

For series [3], the system named is Plasmodium berghei ANKA. As to the kind of experiment: Experimental cerebral malaria (ECM) model: parasitemia and survival. Format: in vivo, C57BL/6 mice. The method, then:
Six- to eight-week-old male C57BL/6 mice were provided by the Oswaldo Cruz Foundation (FIOCRUZ—Rio de Janeiro, Brazil). The mice were housed in appropriate cages with free access to food and fresh water in a room with controlled temperature (22–24 °C) with a light/dark cycle of 12 h.
as §1
The same protocol was performed with 6- to 8-week-old BALB/c mice also provided from FIOCRUZ (8 male mice per group). Each group was treated one hour before infection (day zero) i.p. at 100 ng Kg^−1 for five consecutive days. The dose used was similar to that used for Ang II in in vivo studies, as described by Gallego-Delgado et al., 2015. […] After 3 days, parasitemia was evaluated by blood smear from a droplet of blood collected from the lateral tail vein of each animal and colored with the hematological Diff-Quick® kit. The survival of the animals was also monitored daily. […]

For series [4], the system named is C57BL/6 mice infected with P. berghei ANKA. As to the kind of experiment: SHIRPA behavioral tests in the ECM model. Format: in vivo, mouse. The note with it: day 5 post-infection, difference of scores before and after infection, vs vehicle (PBS). The source says:
C57BL/6 mice were used for the experimental cerebral malaria model, and the assays were defined by the presence of at least two of the following clinical signs of neurological involvement: ataxia, paralysis of the limbs, poor correction reflex, convulsions, and coma. A series of SHIRPA tests (SmithKline Beecham, Harwell, Imperial College, Royal London Hospital, phenotype assessment) was used to evaluate behavioral, motor, and neurological changes during the development of the P. berghei infection. Tests aimed at evaluating cognitive and behavioral parameters were selected to assess brain impairment of the mice. The tests described below were initially performed on animals not yet infected at day 0. Next, the mice were treated and infected as described earlier. Five days after infection, the tests were repeated and the results were expressed as the difference between the sum of the scores before and after infection with P. berghei. […]
After five minutes of the test described above, the animals were transferred to the arena without being touched. The observation of the immediate reactions to the new environment was recorded for thirty seconds and a score was assigned.
While mice were still in the arena, the number of squares of 11 cm^2 of the arena that the animal stepped into with four legs at the same time was quantified for thirty seconds. […]

The subject of series [5] is Plasmodium. As to conditions: same mouse model (ECM), infected mice treated with the ACE inhibitor; cited from earlier work.

For the compound “CDRVYIHPFC (disulfide 1-10 (inferred)) [Ang II-SS, disulfide bridge-constrained derivative of Ang II]”, the contractile activity entry in series [1] is reported as “did not elicit significant contractile activity”. Besides, the mouse survival entry in series [2] (100 ng Kg−1 min−1 i.p. daily for 5 days, Kaplan–Meier, log rank vs vehicle, n = 8) is on record as “increased mouse survival”; in series [3] (C57BL/6 mice (ECM), 100 ng Kg−1 min−1 i.p. daily for 5 days, Kaplan–Meier, log rank vs vehicle, n = 8), “increased mouse survival”. Moreover, the effect on parasitemia entry in series [2] (100 ng Kg−1 min−1 i.p. daily until day 4 p.i., blood smear day 3 to 9 p.i., especially at day 9 p.i., vs vehicle) is listed as “reduced parasitemia”. The “parasitemia level at day 7 p.i.” value in series [3] (C57BL/6 mice, 100 ng Kg−1 min−1 i.p. daily until day 4 p.i., first dose 1 h before infection, blood smear, vehicle group reached 18% parasitemia) is “approximately 10%”. For the same compound, in series [4], the SHIRPA behavioral score entry was “reduced the SHIRPA behavioral score”.
Consider `CC[C@H](C)[C@H](NC(=O)[C@@H](N)C(C)C)C(=O)N1CCC[C@H]1C(=O)N[C@@H](Cc1ccccc1)C(=O)O` [VIPF] (H-VIPF-OH), for which, in series [1], the contractile activity result is listed as “did not elicit significant contractile activity”.
For the compound `C[C@H](CS)C(=O)N1CCC[C@H]1C(=O)O` [captopril], the effect on parasitemia result in series [5] is given as “discrete but significant reduction in parasitemia”.
